The values below are quoted from earlier work in patent publication US9233112B2, “Pharmaceutical compositions of cefixime” (LUPIN LIMITED, priority 2006, dated 2016).

Regarding `C=CC1=C(C(=O)O)N2C(=O)[C@@H](NC(=O)/C(=N\OCC(=O)O)c3csc(N)n3)[C@H]2SC1` [Cefixime], the Solubility in water entry is “poorly soluble in water”.
